Experimental data as given in the NIST ThermoML archive (doi:10.1016/j.jct.2010.10.025).

Experiment: xn = mol fraction of the nth substance listed
Details: 101 kPa, Liquid; for speed of sound: Sing-around technique in a fixed-path interferometer; for mass density: Vibrating tube method

CCCCCCCCCO [nonan-1-ol] + Cc1ccccc1O
Details | mass density, 293.15 K [kg/m3] | mass density, 313.15 K [kg/m3] | speed of sound, 293.15 K [m/s] | speed of sound, 313.15 K [m/s]
x2 = 0 | 827.704 | 813.877 | 1380.7 | 1314
x2 = 0.0747 | 838.281 | 824.298 | 1388 | 1320
x2 = 0.1411 | 848.105 | 833.982 | 1393.4 | 1325.4
x2 = 0.2087 | 858.578 | 844.312 | 1398.9 | 1330.9
x2 = 0.2614 | 867.121 | 852.733 | 1403.3 | 1335.5
x2 = 0.326 | 878.085 | 863.535 | 1408.9 | 1341.4
x2 = 0.4013 | 891.616 | 876.862 | 1416.1 | 1348.8
x2 = 0.4562 | 902.048 | 887.133 | 1422 | 1354.7
x2 = 0.5303 | 916.987 | 901.834 | 1430.5 | 1363.3
x2 = 0.5829 | 928.291 | 912.952 | 1437.3 | 1370
x2 = 0.645 | 942.416 | 926.834 | 1446.2 | 1378.7
x2 = 0.7171 | 960.1 | 944.211 | 1457.8 | 1389.8
x2 = 0.784 | 977.81 | 961.595 | 1470 | 1401.7
x2 = 0.8566 | 998.699 | 982.094 | 1485.3 | 1416.7
x2 = 0.9397 | 1024.88 | 1007.76 | 1505.2 | 1436.5

COc1ccccc1 [anisole] + CCCCCCCCCO
x1 = 1
Details | mass density [kg/m3] | speed of sound [m/s]
293.15 K | 993.845 | 1427.3
313.15 K | 974.966 | 1346.7

CCCCCCCCCO [nonan-1-ol] + Cc1ccc(O)cc1
x2 = 0
Details | mass density [kg/m3] | speed of sound [m/s]
293.15 K | 827.704 | 1380.7
313.15 K | 813.877 | 1314

Cc1ccc(O)cc1 [4-methylphenol] + CCCCCCCCCO
Details | mass density, 293.15 K [kg/m3] | mass density, 313.15 K [kg/m3] | speed of sound, 293.15 K [m/s] | speed of sound, 313.15 K [m/s]
x1 = 0.0723 | 837.798 | 823.756 | 1387.3 | 1319.8
x1 = 0.1353 | 846.887 | 832.662 | 1392.7 | 1324.9
x1 = 0.2032 | 856.995 | 842.572 | 1398.2 | 1330.5
x1 = 0.2637 | 866.395 | 851.785 | 1403.2 | 1335.7
x1 = 0.3492 | 880.334 | 865.479 | 1410.3 | 1343
x1 = 0.4122 | 891.234 | 876.214 | 1415.5 | 1348.6
x1 = 0.4898 | 905.461 | 890.246 | 1422.7 | 1356.1
x1 = 0.5492 | 917.111 | 901.771 | 1428.7 | 1362.2
x1 = 0.6143 | 930.635 | 915.184 | 1436 | 1369.8
x1 = 0.6735 | 943.741 | 928.201 | 1443.4 | 1377.4
x1 = 0.7455 | 960.902 | 945.287 | 1453.2 | 1388.3
x1 = 0.8163 | 979.164 | 963.518 | 1464.5 | 1400
x1 = 0.8789 | 996.577 | 980.938 | 1476 | 1412.3
x1 = 0.9362 | 1013.65 | 998.054 | 1487.5 | 1424.4
x1 = 1 | 1033.99 | 1018.47 | 1502.2 | 1439.6

Cc1cccc(O)c1 [3-methylphenol] + CCCCCCCCCO
x1 = 1
Details | mass density [kg/m3] | speed of sound [m/s]
293.15 K | 1033.99 | 1496.8
313.15 K | 1018.06 | 1434.2

CCCCCCCCCO [nonan-1-ol] + COc1ccccc1
Details | mass density, 293.15 K [kg/m3] | mass density, 313.15 K [kg/m3] | speed of sound, 293.15 K [m/s] | speed of sound, 313.15 K [m/s]
x2 = 0 | 827.704 | 813.877 | 1380.7 | 1314
x2 = 0.0691 | 834.714 | 820.629 | 1379.8 | 1312
x2 = 0.1265 | 840.852 | 826.539 | 1379.1 | 1310.9
x2 = 0.2023 | 849.439 | 834.809 | 1378.5 | 1309.8
x2 = 0.2701 | 857.605 | 842.665 | 1378.4 | 1309
x2 = 0.335 | 865.942 | 850.682 | 1378.5 | 1308.5
x2 = 0.405 | 875.488 | 859.873 | 1379 | 1308.3
x2 = 0.4753 | 885.766 | 869.775 | 1380.2 | 1308.6
x2 = 0.5348 | 895.034 | 878.714 | 1381.6 | 1309.2
x2 = 0.6025 | 906.314 | 889.609 | 1384.2 | 1311.1
x2 = 0.6657 | 917.614 | 900.551 | 1387.5 | 1313.4
x2 = 0.7399 | 931.942 | 914.464 | 1392.7 | 1317.5
x2 = 0.8198 | 948.831 | 930.915 | 1400.4 | 1323.4
x2 = 0.8791 | 962.443 | 944.199 | 1407.4 | 1329
x2 = 0.9468 | 979.271 | 960.651 | 1417.5 | 1337.5

CCCCCCCCCO [nonan-1-ol] + Cc1cccc(O)c1
Details | mass density, 293.15 K [kg/m3] | mass density, 313.15 K [kg/m3] | speed of sound, 293.15 K [m/s] | speed of sound, 313.15 K [m/s]
x2 = 0 | 827.704 | 813.877 | 1380.7 | 1314
x2 = 0.0696 | 837.032 | 823.074 | 1386.7 | 1319.2
x2 = 0.1336 | 845.992 | 831.904 | 1390.8 | 1323.6
x2 = 0.2038 | 856.282 | 842.048 | 1395.6 | 1328.8
x2 = 0.2679 | 866.185 | 851.815 | 1400.4 | 1333.8
x2 = 0.3231 | 875.133 | 860.644 | 1404.9 | 1338.4
x2 = 0.3971 | 887.768 | 873.113 | 1411.3 | 1345
x2 = 0.4653 | 900.156 | 885.348 | 1417.5 | 1351.6
x2 = 0.5405 | 914.757 | 899.778 | 1425.3 | 1359.6
x2 = 0.6082 | 928.851 | 913.714 | 1432.9 | 1367.1
x2 = 0.6786 | 944.571 | 929.281 | 1441.8 | 1376.3
x2 = 0.7459 | 960.755 | 945.321 | 1451.1 | 1386.2
x2 = 0.8167 | 979.083 | 963.512 | 1461.2 | 1397.7
x2 = 0.8892 | 999.352 | 983.643 | 1474.3 | 1410.7
x2 = 0.9459 | 1016.5 | 1000.7 | 1485 | 1422.1

Cc1ccccc1O [2-methylphenol] + CCCCCCCCCO
x1 = 1
Details | mass density [kg/m3] | speed of sound [m/s]
293.15 K | 1045.69 | 1521.8
313.15 K | 1028.14 | 1453.3
